Measured values taken from patent publication US7153869B2, “Substituted amino acids as erythropoietin mimetics” (priority 1998, dated 2006).
Where two headings read alike, the source gives them in different places.

Molecular target: T1, EBP-Ig (N-terminal 225 amino acids of the human EPO receptor joined to an Ig heavy chain) (Homo sapiens, UniProt P19235)
T1 construct: Ig heavy chain (fusion partner); made in house; host or cells: NSO cells (secreted into conditioned media)
T1 sequence (P19235 25-250 limits assumed): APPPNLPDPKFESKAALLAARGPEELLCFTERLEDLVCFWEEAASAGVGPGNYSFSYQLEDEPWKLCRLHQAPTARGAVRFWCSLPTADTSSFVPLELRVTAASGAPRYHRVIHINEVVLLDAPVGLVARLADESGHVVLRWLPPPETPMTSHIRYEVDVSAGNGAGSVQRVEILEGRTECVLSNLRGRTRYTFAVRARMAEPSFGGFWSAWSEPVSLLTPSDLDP
Test: Inhibition of [125I]EPO binding to immobilized EBP-Ig (EPO binding protein-Ig), scintillation Flash plate competition assay
Conditions: for IC30 μM (Inhibition of EPO binding to EBP-Ig): 0–500 μM test compound; for % inh @ 50 μM (Inhibition of EPO binding to EBP-Ig): 50 μM test compound, average % inhibition

[1] = read-out: % inh @ 50 μM (Inhibition of EPO binding to EBP-Ig)
[2] = read-out: EPO/EBP-Ig % inh @ 50 μM, Table 11, 50 μM
[3] = read-out: IC50, μM (Inhibition of EPO binding to EBP-Ig), 0.5 nM [125I]EPO, concentration reducing corrected total binding to 50%

SMILES	IC30 μM (Inhibition of EPO binding to EBP-Ig) (0.5 nM [125I]EPO) [µM]	% inh @ 50 μM (Inhibition of EPO binding to EBP-Ig) (0.5 nM [125I]EPO) [%]	IC50 [3] [µM]	EPO/EBP-Ig % inh @ 50 μM (50 μM compound, Table 13) [%]	also measured
CC(C)(C)OC(=O)CC(C(=O)NCCCOCCCCOCCCNC(=O)C(CC(=O)OC(C)(C)C)N(Cc1ccc(OCc2ccccc2)cc1)Cc1ccc(OCc2ccccc2)cc1)N(Cc1ccc(OCc2ccccc2)cc1)Cc1ccc(OCc2ccccc2)cc1 (stereo not shown) [compound 241]					EPO/EBP-Ig % inh @ 50 μM (Table 11, 50 μM): 2%
CC(C)(C)OC(=O)CC(C(=O)NCCCOCCOCCOCCCNC(=O)C(CC(=O)OC(C)(C)C)N(Cc1ccc(OCc2ccccc2)cc1)Cc1ccc(OCc2ccccc2)cc1)N(Cc1ccc(OCc2ccccc2)cc1)Cc1ccc(OCc2ccccc2)cc1 (stereo not shown) [compound 242]					EPO/EBP-Ig % inh @ 50 μM (Table 11, 50 μM): 1%
O=C(O)CC(C(=O)NCCCOCCCCOCCCNC(=O)C(CC(=O)O)N(Cc1ccc(OCc2ccccc2)cc1)Cc1ccc(OCc2ccccc2)cc1)N(Cc1ccc(OCc2ccccc2)cc1)Cc1ccc(OCc2ccccc2)cc1 (stereo not shown) [compound 243]	2				IC50: 18 µM; inhibition at 50 µM [1]: 75%; inhibition at 50 µM [2]: 75%
O=C(O)CC(C(=O)NCCCOCCOCCOCCCNC(=O)C(CC(=O)O)N(Cc1ccc(OCc2ccccc2)cc1)Cc1ccc(OCc2ccccc2)cc1)N(Cc1ccc(OCc2ccccc2)cc1)Cc1ccc(OCc2ccccc2)cc1 (stereo not shown) [compound 244]	1				IC50: 28 µM; inhibition at 50 µM [1]: 66%; inhibition at 50 µM [2]: 66%
O=C(O)CCC(C(=O)NCCOCCOCCNC(=O)C(CCC(=O)O)N(Cc1cccc(NC(=O)c2ccco2)c1)Cc1cccc(Oc2ccccc2)c1)N(Cc1cccc(NC(=O)c2ccco2)c1)Cc1cccc(Oc2ccccc2)c1 (stereo not shown) [compound 248]	7	56	20		EPO/EBP-Ig % inh @ 50 μM (Table 11, 50 μM): 56%
Cc1ccc(C(=O)Nc2cccc(CN(Cc3cccc(Oc4ccccc4)c3)C(CCC(=O)O)C(=O)NCCOCCOCCNC(=O)C(CCC(=O)O)N(Cc3cccc(NC(=O)c4ccc(C)cc4)c3)Cc3cccc(Oc4ccccc4)c3)c2)cc1 (stereo not shown) [compound 249]	7	72	10		EPO/EBP-Ig % inh @ 50 μM (Table 11, 50 μM): 72%
Cc1ccc(S(=O)(=O)Nc2cccc(CN(Cc3cccc(Oc4ccccc4)c3)C(CCC(=O)O)C(=O)NCCOCCOCCNC(=O)C(CCC(=O)O)N(Cc3cccc(NS(=O)(=O)c4ccc(C)cc4)c3)Cc3cccc(Oc4ccccc4)c3)c2)cc1 (stereo not shown) [compound 250]	7				IC50: 20 µM; inhibition at 50 µM [1]: 78%; inhibition at 50 µM [2]: 78%
O=C(O)CCC(C(=O)NCCOCCOCCNC(=O)C(CCC(=O)O)N(CC=Cc1ccccc1)CC=Cc1ccccc1)N(CC=Cc1ccccc1)CC=Cc1ccccc1 (stereo not shown) [compound 251]	10	49	45		EPO/EBP-Ig % inh @ 50 μM (50 μM compound, Table 12): 49%
CC(C)(C)OC(=O)CC(C(=O)NCCCOCCCCOCCCNC(=O)C(CC(=O)OC(C)(C)C)N(C/C=C/c1cccc(Oc2ccc(C(C)(C)C)cc2)c1)C/C=C/c1cccc(Oc2ccc(C(C)(C)C)cc2)c1)N(C/C=C/c1cccc(Oc2ccc(C(C)(C)C)cc2)c1)C/C=C/c1cccc(Oc2ccc(C(C)(C)C)cc2)c1 (stereo not shown) [compound 252]					EPO/EBP-Ig % inh @ 50 μM (50 μM compound, Table 12): −4%
CC(C)(C)OC(=O)CC(C(=O)NCCCOCCOCCOCCCNC(=O)C(CC(=O)OC(C)(C)C)N(C/C=C/c1cccc(Oc2ccc(C(C)(C)C)cc2)c1)C/C=C/c1cccc(Oc2ccc(C(C)(C)C)cc2)c1)N(C/C=C/c1cccc(Oc2ccc(C(C)(C)C)cc2)c1)C/C=C/c1cccc(Oc2ccc(C(C)(C)C)cc2)c1 (stereo not shown) [compound 253]					EPO/EBP-Ig % inh @ 50 μM (50 μM compound, Table 12): −5%
CC(C)(C)OC(=O)CC(C(=O)NCCCCCCCCCCNC(=O)C(CC(=O)OC(C)(C)C)N(C/C=C/c1cccc(Oc2ccc(C(C)(C)C)cc2)c1)C/C=C/c1cccc(Oc2ccc(C(C)(C)C)cc2)c1)N(C/C=C/c1cccc(Oc2ccc(C(C)(C)C)cc2)c1)C/C=C/c1cccc(Oc2ccc(C(C)(C)C)cc2)c1 (stereo not shown) [compound 254]					EPO/EBP-Ig % inh @ 50 μM (50 μM compound, Table 12): −9%
CC(C)(C)OC(=O)CC(C(=O)NCCCCCCCCCCCCNC(=O)C(CC(=O)OC(C)(C)C)N(C/C=C/c1cccc(Oc2ccc(C(C)(C)C)cc2)c1)C/C=C/c1cccc(Oc2ccc(C(C)(C)C)cc2)c1)N(C/C=C/c1cccc(Oc2ccc(C(C)(C)C)cc2)c1)C/C=C/c1cccc(Oc2ccc(C(C)(C)C)cc2)c1 (stereo not shown) [compound 255]					EPO/EBP-Ig % inh @ 50 μM (50 μM compound, Table 12): 0%
CC(C)(C)OC(=O)CC(C(=O)NCCOCCOCCNC(=O)C(CC(=O)OC(C)(C)C)N(C/C=C/c1cccc(Oc2ccc(C(C)(C)C)cc2)c1)C/C=C/c1cccc(Oc2ccc(C(C)(C)C)cc2)c1)N(C/C=C/c1cccc(Oc2ccc(C(C)(C)C)cc2)c1)C/C=C/c1cccc(Oc2ccc(C(C)(C)C)cc2)c1 (stereo not shown) [compound 256]					EPO/EBP-Ig % inh @ 50 μM (50 μM compound, Table 12): 10%
CC(C)(C)OC(=O)NCCCCC(C(=O)NCCCOCCOCCOCCCNC(=O)C(CCCCNC(=O)OC(C)(C)C)N(Cc1ccc(OCc2ccccc2)cc1)Cc1ccc(OCc2ccccc2)cc1)N(Cc1ccc(OCc2ccccc2)cc1)Cc1ccc(OCc2ccccc2)cc1 (stereo not shown) [compound 257]				−26	
CC(C)(C)OC(=O)NCCCCC(C(=O)NCCCOCCCCOCCCNC(=O)C(CCCCNC(=O)OC(C)(C)C)N(Cc1ccc(OCc2ccccc2)cc1)Cc1ccc(OCc2ccccc2)cc1)N(Cc1ccc(OCc2ccccc2)cc1)Cc1ccc(OCc2ccccc2)cc1 (stereo not shown) [compound 258]				−24	
CC(C)(C)OC(=O)NCCCCC(C(=O)NCCCCCCCCCCCCNC(=O)C(CCCCNC(=O)OC(C)(C)C)N(Cc1ccc(OCc2ccccc2)cc1)Cc1ccc(OCc2ccccc2)cc1)N(Cc1ccc(OCc2ccccc2)cc1)Cc1ccc(OCc2ccccc2)cc1 (stereo not shown) [compound 259]				−13	
CC(C)(C)OC(=O)NCCCCC(C(=O)NCCOCCOCCNC(=O)C(CCCCNC(=O)OC(C)(C)C)N(Cc1ccc(OCc2ccccc2)cc1)Cc1ccc(OCc2ccccc2)cc1)N(Cc1ccc(OCc2ccccc2)cc1)Cc1ccc(OCc2ccccc2)cc1 (stereo not shown) [compound 260]				−12	
NCCCCC(C(=O)NCCOCCOCCNC(=O)C(CCCCN)N(Cc1ccc(OCc2ccccc2)cc1)Cc1ccc(OCc2ccccc2)cc1)N(Cc1ccc(OCc2ccccc2)cc1)Cc1ccc(OCc2ccccc2)cc1 (stereo not shown) [compound 261]	1.5	51	2	51	
O=C(O)CCC(=O)NCCCCC(C(=O)NCCOCCOCCNC(=O)C(CCCCNC(=O)CCC(=O)O)N(Cc1ccc(OCc2ccccc2)cc1)Cc1ccc(OCc2ccccc2)cc1)N(Cc1ccc(OCc2ccccc2)cc1)Cc1ccc(OCc2ccccc2)cc1 (stereo not shown) [compound 262]	1		1.5		
O=C(O)CCCC(=O)NCCCCC(C(=O)NCCOCCOCCNC(=O)C(CCCCNC(=O)CCCC(=O)O)N(Cc1ccc(OCc2ccccc2)cc1)Cc1ccc(OCc2ccccc2)cc1)N(Cc1ccc(OCc2ccccc2)cc1)Cc1ccc(OCc2ccccc2)cc1 (stereo not shown) [compound 263]	1	88	1.5	88	
CC(C)(CC(=O)O)CC(=O)NCCCCC(C(=O)NCCOCCOCCNC(=O)C(CCCCNC(=O)CC(C)(C)CC(=O)O)N(Cc1ccc(OCc2ccccc2)cc1)Cc1ccc(OCc2ccccc2)cc1)N(Cc1ccc(OCc2ccccc2)cc1)Cc1ccc(OCc2ccccc2)cc1 (stereo not shown) [compound 264]	1.5	89	8	89	
O=C(O)CCC(=O)NCCCCC(C(=O)NCCCOCCCCOCCCNC(=O)C(CCCCNC(=O)CCC(=O)O)N(Cc1ccc(OCc2ccccc2)cc1)Cc1ccc(OCc2ccccc2)cc1)N(Cc1ccc(OCc2ccccc2)cc1)Cc1ccc(OCc2ccccc2)cc1 (stereo not shown) [compound 265]	1	65	6	65	
O=C(O)CCCC(=O)NCCCCC(C(=O)NCCCOCCCCOCCCNC(=O)C(CCCCNC(=O)CCCC(=O)O)N(Cc1ccc(OCc2ccccc2)cc1)Cc1ccc(OCc2ccccc2)cc1)N(Cc1ccc(OCc2ccccc2)cc1)Cc1ccc(OCc2ccccc2)cc1 (stereo not shown) [compound 266]	1	82	4	82	
CC(C)(CC(=O)O)CC(=O)NCCCCC(C(=O)NCCCOCCCCOCCCNC(=O)C(CCCCNC(=O)CC(C)(C)CC(=O)O)N(Cc1ccc(OCc2ccccc2)cc1)Cc1ccc(OCc2ccccc2)cc1)N(Cc1ccc(OCc2ccccc2)cc1)Cc1ccc(OCc2ccccc2)cc1 (stereo not shown) [compound 267]	2	83	6	83	
